Data as given in patent publication US20250179032A1, “HETEROCYCLIC INHIBITORS OF GLUT9 FOR TREATMENT OF DISEASE” (HORIZON THERAPEUTICS IRELAND DAC, priority 2022, published 2025).

Target: T1, H. sapiens SLC2A9 variant 2 (GLUT9B) (Homo sapiens, UniProt Q9NRM0)
T1 sequence (Q9NRM0 1-511 isoform Q9NRM0-2): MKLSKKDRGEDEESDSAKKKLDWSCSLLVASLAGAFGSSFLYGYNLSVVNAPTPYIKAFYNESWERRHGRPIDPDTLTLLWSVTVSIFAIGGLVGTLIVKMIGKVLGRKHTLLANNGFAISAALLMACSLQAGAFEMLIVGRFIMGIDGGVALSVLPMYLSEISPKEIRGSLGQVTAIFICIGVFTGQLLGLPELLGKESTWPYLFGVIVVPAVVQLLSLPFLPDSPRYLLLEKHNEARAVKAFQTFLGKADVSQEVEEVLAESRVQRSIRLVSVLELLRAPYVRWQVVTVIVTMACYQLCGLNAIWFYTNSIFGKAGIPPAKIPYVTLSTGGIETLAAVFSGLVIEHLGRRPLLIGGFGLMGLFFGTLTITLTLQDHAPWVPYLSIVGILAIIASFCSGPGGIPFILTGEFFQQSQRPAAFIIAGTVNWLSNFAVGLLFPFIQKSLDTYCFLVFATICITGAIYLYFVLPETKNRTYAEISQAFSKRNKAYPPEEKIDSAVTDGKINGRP
Assay: GLUT9 functional assay: uric acid uptake in HEK293T cells, allantoin formation by MS/MS as proxy of GLUT9B inhibition
Type: cell-based
Settings: 15 minute assay; HEK293T cells stably expressing GLUT9B and transiently A. oryzae uricase; uric acid 0.3 mM, 37° C.; read-out: 15 min IC50
Description: Uric acid stocks (9 mM, Millipore-Sigma, U0881) were generated in 125 mM choline chloride (Millipore-Sigma, C7017) and the concentration was determined at 293 nm using a molar extinction coefficient of 9600 M- ^1 cm- ^1) after collecting the absorbance spectra from 220-350 nm. Allantoin stocks (12 mM Toronto Research Chemicals, A540500) were generated in LCMS grade water (Thermo Scientific, 51140). The concentration of allantoin was determined by qNMR (Michigan State University). HEK293T cells were purchased from ATCC (HEK 293T/17 SF). Hanks buffered saline salts (HBSS) was purchased from Millipore-Sigma (H6648-1L).
SLC2A9 variant 2 was assayed in sodium gluconate buffer was composed of 125 mM sodium gluconate (TCI Chemicals, G0041-500G), 4.8 mM potassium gluconate (TCI Chemicals, G0040-500G), 1.2 mM calcium gluconate (TCI Chemicals, G0037-500G), 1.2 mM potassium phosphate (pH 7.4, Millipore-Sigma, 17835), 1.2 mM MgSO4, Millipore-Sigma, M2773-500G), 25 mM HEPES pH 7.3, (Millipore-Sigma, 54457). The final pH of the buffer was 7.4. Urate 1 was assayed in the same buffer save the pH was made to be 5.5 using 25 mM MES (pH 5.5) buffer vs 25 mM HEPES (pH 7.3) buffer.
Human untagged clone for (untagged)-human solute carrier family 2 member 9 (SLC2A9), transcript variant (SLC2A9/NM_001001290, FIG. 1 and FIG. 2; SEQ ID NOS: 3 and 4) was purchased from Origene (Cat #SC319239). SLC2A9 variant 2 (GLUT9B) gene was amplified by PCR using the following primer to allow for the introduction of EcoR1 and Not1 sites using the primers below.
HEK293T clonal stable cell lines containing the SLC2A9 variant 2 construct in the bicistronic pIRESpuro vector were generated using Viafect™ (Promega E4981) as per the manufactures instructions and puromycin selection (5 μg×mL^−1).
Uric acid uptake was measured in HEK293T cells stably expressing H. sapiens SLC2A9 variant 2 (GLUT9B) and transiently expressing A. oryzae uricase. Thus, decreased allantoin formation was used as a proxy of GLUT9B inhibition. Briefly, clonal cells were plated (53,000 cells/cm^2) in DMEM with 10% FBS. Twenty-four hours later, A. oryzae uricase was transfected, and assay conducted 3 days later across a 12-point curve in buffer (in mM: 125 sodium gluconate, 4.8 potassium gluconate, 1.2 calcium gluconate, 1.2 potassium phosphate, 1.2 magnesium sulfate4, 25 HEPES; pH 7.4) with uric acid at the GLUT9B Km (0.3 mM) for 15 min or for 60 min, at 37° C. Following wash (Hanks, 37° C.), plates were sealed, incubated (5 min, RT) and cells freeze-thawed prior to lysing in water and shaking (30 min RT). Lysates were filtered through PVDF and subjected to MSMS using a 10 mM ammonium acetate-based mobile phase on a porous graphitic carbon column. Allantoin was detected in positive ion mode. Desired analyte concentrations were quantitated by integrating the area under the curve followed by a log-logistic regression model and data compared to a standard curve prepared in a matching HEK293T biological matrix.
Mass spectrometry measurement of allantoin was completed using an Agilent RapidFire 300 coupled to a Sciex API 4000 mass spectrometer. The stationary phase was an Agilent cartridge D (hypercarb). Mobile phase A was 10 mM ammonium acetate. Mobile phase B was 5 mM ammonium acetate, 25% acetonitrile, 25% acetone. Allantoin was detected in positive ion mode with the following compound ID settings: Q1 159, Q3 115.8, DP 57, CE 12.5 Dwell 100 ms. The source settings were CAD 10, CUR 20, GS1 50, GS250 IS/NC: 5000, TEM 650, EP 10, CXP 10 where Q1 and Q3 resolution were set to low.
Data was quantitated using Area under the curve integration was performed with the RapidFire™ Integrator (Agilent Technologies) for the desired analytes. Quantitation was completed using in a using a log-logistic regression model using allantoin in matching HEK293T biological matrix.

| Compound | IC50 [µM] |
| --- | --- |
| CCCCc1cnc(-c2ccc(OC)cc2)c(-c2ccc(C(=O)O)cn2)c1 [Compound 24, 5′-butyl-2′-(4-methoxyphenyl)-[2,3′-bipyridine]-5-carboxylic acid] | > 2 |
| CCCCc1cnc(-c2ccc(OC)cc2)c(-c2ncc(C(=O)O)s2)c1 [Compound 25, 2-(5-butyl-2-(4-methoxyphenyl)pyridin-3-yl)thiazole-5-carboxylic acid] | > 2 |
| CCCCc1cnc(-c2ccc(OC)cc2)c(-c2cc(=O)[nH][nH]2)c1 [Compound 26, 5-(5-butyl-2-(4-methoxyphenyl)pyridin-3-yl)-1,2-dihydro-3H-pyrazol-3-one] | > 2 |
| CCCCc1cnc(-c2ccc(OC)cc2)c(-c2ccc3c(c2)CNC3=O)c1 [Compound 27, 5-(5-butyl-2-(4-methoxyphenyl)pyridin-3-yl)isoindolin-1-one] | 0.5 to 2 |
| CCCCc1nc(-c2ccc(OC)cc2)c(N2CCC(C(=O)O)CC2)o1 [Compound 28, 1-(2-butyl-4-(4-methoxyphenyl)oxazol-5-yl)piperidine-4-carboxylic acid] | 0.5 to 2 |
| CCCCc1cnc(-c2ccc(OC)cc2)c(-c2cn(CC(=O)O)nn2)c1 [Compound 29, 2-(4-(5-butyl-2-(4-methoxyphenyl)pyridin-3-yl)-1H-1,2,3-triazol-1-yl)acetic acid] | < 0.5 |
| COc1ccc(-c2ncc(CCC(F)(F)C(F)(F)F)nc2N2CCC(C(=O)O)CC2)cc1 [Compound 30, 1-(3-(4-methoxyphenyl)-6-(3,3,4,4,4-pentafluorobutyl)pyrazin-2-yl)piperidine-4-carboxylic acid] | < 0.5 |
| COc1ccc(-c2ncc(CCCC(F)(F)F)nc2N2CCC(C(=O)O)CC2)cc1 [Compound 31, 1-(3-(4-methoxyphenyl)-6-(4,4,4-trifluorobutyl)pyrazin-2-yl)piperidine-4-carboxylic acid] | < 0.5 |
| COc1ccc(-c2ncc(COCC(F)(F)F)nc2N2CCC(C(=O)O)CC2)cc1 [Compound 32, 1-(3-(4-methoxyphenyl)-6-((2,2,2-trifluoroethoxy)methyl)pyrazin-2-yl)piperidine-4-carboxylic acid] | > 2 |
| COCCOc1ccc(-c2ncc(COCC(F)(F)F)nc2N2CCC(C(=O)O)CC2)cc1 [Compound 33, 1-(3-(4-(2-methoxyethoxy)phenyl)-6-((2,2,2-trifluoroethoxy)methyl)pyrazin-2-yl)piperidine-4-carboxylic acid] | 0.5 to 2 |
| COCCOc1ccc(-c2ncc(CCCC(F)(F)F)nc2N2CCC(C(=O)O)CC2)cc1 [Compound 34, 1-(3-(4-(2-methoxyethoxy)phenyl)-6-(4,4,4-trifluorobutyl)pyrazin-2-yl)piperidine-4-carboxylic acid] | 0.5 to 2 |
| CCCCc1cnc(-c2ccc(OC)cc2)c(-c2ccc3c(c2)COC3=O)n1 [Compound 35, 5-(6-butyl-3-(4-methoxyphenyl)pyrazin-2-yl)isobenzofuran-1(3H)-one] | 0.5 to 2 |
| CCCCc1cnc(-c2ccc(OC)cc2)c(N2CC3(CC(C(=O)O)C3)C2)n1 [Compound 36, 2-(6-butyl-3-(4-methoxyphenyl)pyrazin-2-yl)-2-azaspiro[3.3]heptane-6-carboxylic acid] | 0.5 to 2 |
| CCCCc1cnc(-c2ccc(OCCOC)c(F)c2)c(N2CCC(C(=O)O)CC2)n1 [Compound 37, 1-(6-butyl-3-(3-fluoro-4-(2-methoxyethoxy)phenyl)pyrazin-2-yl)piperidine-4-carboxylic acid] | < 0.5 |
| CCCCc1cnc(-c2cc(F)c(OCCOC)c(F)c2)c(N2CCC(C(=O)O)CC2)n1 [Compound 38, 1-(6-butyl-3-(3,5-difluoro-4-(2-methoxyethoxy)phenyl)pyrazin-2-yl)piperidine-4-carboxylic acid] | 0.5 to 2 |
| CCCCc1cnc(-c2ccc(OC)cc2)c(-c2ccc3c(C(=O)O)c[nH]c3c2)c1 [Compound 39, 6-(5-butyl-2-(4-methoxyphenyl)pyridin-3-yl)-1H-indole-3-carboxylic acid] | < 0.5 |
| CCCCc1cnc(-c2ccc(OC)cc2)c(-c2ccc3c(C(=O)O)coc3c2)c1 [Compound 40, 6-(5-butyl-2-(4-methoxyphenyl)pyridin-3-yl)benzofuran-3-carboxylic acid] | < 0.5 |
| CCCCc1cnc(-c2ccc(OC)cc2)c(N2CCc3c(C(=O)O)csc3C2)n1 [Compound 41, 6-(6-butyl-3-(4-methoxyphenyl)pyrazin-2-yl)-4,5,6,7-tetrahydrothieno[2,3-c]pyridine-3-carboxylic acid] | 0.5 to 2 |
| CCCCc1cnc(-c2ccc(OCCOC(F)(F)F)cc2)c(N2CCC(C(=O)O)CC2)n1 [Compound 42, 1-(6-butyl-3-(4-(2-(trifluoromethoxy)ethoxy)phenyl)pyrazin-2-yl)piperidine-4-carboxylic acid] | > 2 |
| CCCCc1cnc(-c2ccc(OC)s2)c(N2CCC(C(=O)O)CC2)n1 [Compound 43, 1-(6-butyl-3-(5-methoxythiophen-2-yl)pyrazin-2-yl)piperidine-4-carboxylic acid] | > 2 |
| CCCCc1cnc(-c2cnc(OC)s2)c(N2CCC(C(=O)O)CC2)n1 [Compound 44, 1-(6-butyl-3-(2-methoxythiazol-5-yl)pyrazin-2-yl)piperidine-4-carboxylic acid] | > 2 |
| CCCCc1cnc(-c2ccc3c(c2)OCO3)c(N2CCC(C(=O)O)CC2)n1 [Compound 45] | < 0.5 |
| CCCCc1cnc(-c2cc(F)c3c(c2)OCO3)c(N2CCC(C(=O)O)CC2)n1 [Compound 46, 1-(6-butyl-3-(7-fluorobenzo[d][1,3]dioxol-5-yl)pyrazin-2-yl)piperidine-4-carboxylic acid] | < 0.5 |
| CCCCc1cnc(-c2ccc3c(c2)C(=O)CO3)c(N2CCC(C(=O)O)CC2)n1 [Compound 47, 1-(6-butyl-3-(3-oxo-2,3-dihydrobenzofuran-5-yl)pyrazin-2-yl)piperidine-4-carboxylic acid] | 0.5 to 2 |
| CCCCc1cnc(-c2ccc(OC)cc2)c(N2CCC(CCC(=O)O)CC2)n1 [Compound 48, 3-(1-(6-butyl-3-(4-methoxyphenyl)pyrazin-2-yl)piperidin-4-yl)propanoic acid] | < 0.5 |
| COCc1cnc(-c2cc(F)c3occc3c2)c(N2CCC(C(=O)O)CC2)n1 [Compound 49, 1-(3-(7-fluorobenzofuran-5-yl)-6-(methoxymethyl)pyrazin-2-yl)piperidine-4-carboxylic acid] | 0.5 to 2 |
| COCCn1ccc2cc(-c3ncc(COC)nc3N3CCC(C(=O)O)CC3)cc(F)c21 [Compound 50, 1-(3-(7-fluoro-1-(2-methoxyethyl)-1H-indol-5-yl)-6-(methoxymethyl)pyrazin-2-yl)piperidine-4-carboxylic acid] | > 2 |
